In patent US20240142437A1, “METHODS TO PREVENT TERATOGENICITY OF IMID LIKE MOLECULES AND IMID BASED DEGRADERS/PROTACS” (DANA-FARBER CANCER INSTITUTE, INC., priority 2017, published 2024):
One block for each compound: values may come before it.

What was measured:
[1] = cited from earlier work; for plasma half-life (t1/2) / Cmax: typical dose of 200-400 mg, 25 mg, or 2 mg for thalidomide, lenalidomide, or pomalidomide; for Cmax: read-out: maximum plasma concentration (Cmax)
[2] = tested on: IMiD-dependent CRL4^CRBN substrates; experiment: TMT quantification mass spectrometry proteomics, IMiD-dependent neo-substrates (hESC, Kelly, SK-N-DZ, MM1s cells); assay type: cell-based, human; details: for substrate specificity: proteins degraded across cell lines: hESC, MM1s, Kelly, SK-N-DZ cells expressing detectable levels of the proteins; for number of substrates identified (rank order): proteomics, treatment with different IMiDs
Protocol: Since degradation is mediated through CRL4^CRBN, and because CRBN expression levels are high in the central nervous system (CNS), the effects of IMiDs were assessed in two different neuroblastoma cell lines, Kelly and SK-N-DZ cells, as well as the commonly used multiple myeloma cell line, MM1s, as a control.
Proteins were precipitated using methanol/chloroform.

SALL4 = target: T1, SALL4 (Homo sapiens, UniProt Q96SW2+Q9UJQ4); experiment: Western blot of SALL4 protein levels in human cell lines; assay type: cell-based; details: for effect of co-treatment on IMiD-induced SALL4 degradation: co-treatment with thalidomide, 5 μM bortezomib, 5 μM MLN4924, 0.5 μM MLN7243, HEK293T, SK-N-DZ cells; for SALL4 degradation in CRBN−/− cells: CRBN−/− Kelly and HEK293T cells; for SALL4 protein levels by western blot: 24 hours
T1 construct: endogenous in cells; host or cells: Kelly, SK-N-DZ, HEK293T (western blot)
Protocol: HEK293T cells were cultured in DMEM supplemented with 10% dialyzed fetal bovine serum (FBS) and 2 mM L-Glutamine. SK-N-DZ cells were cultured in DMEM supplemented with 10% dialyzed FBS, 0.1 mM Non-Essential Amino Acids (NEAA) and 2 mM L-Glutamine. H661, MM1s and Kelly cells were cultured in RPMI1640 supplemented with 10% dialyzed FBS. H9 hESC cells were cultured in Essential 8 (Gibco) media on Matrigel-coated nunc tissue culture plates.
(§1) Samples were run on 4-20%, AnyKD or 10% (in-vitro ubiqutination assay) SDS-PAGE Gels (Bio-rad), and transferred to PVDF membranes using the iBlot 2.0 dry blotting system (Thermo Fisher Scientific). Membranes were blocked with LiCor blocking solution (LiCor), and incubated with primary antibodies overnight, followed by three washes in LiCor blocking solution and incubation with secondary antibodies for one hour in the dark. After three final washes, the membranes were imaged on a LiCor fluorescent imaging station (LiCor). When Anti-mouse IgG, HRP Antibody was used, after three washes, the membranes were incubated with Amersham ECL Prime Western Blotting Detection Reagent for 1 minute and subjected to imaging by Amersham Imager 600 (GE).

mmSALL4 = target: T2, mmSALL4 (Mus musculus, UniProt Q8BX22); experiment: Western blot of mmSALL4 in mouse embryonic stem cells; assay type: cell-based; details: mESC, increasing concentrations, 24 hours
T2 construct: endogenous in cells; host or cells: TC1 mouse embryonic stem cells
Protocol: HEK293T cells were cultured in DMEM supplemented with 10% dialyzed fetal bovine serum (FBS) and 2 mM L-Glutamine. SK-N-DZ cells were cultured in DMEM supplemented with 10% dialyzed FBS, 0.1 mM Non-Essential Amino Acids (NEAA) and 2 mM L-Glutamine. H661, MM1s and Kelly cells were cultured in RPMI1640 supplemented with 10% dialyzed FBS. H9 hESC cells were cultured in Essential 8 (Gibco) media on Matrigel-coated nunc tissue culture plates. TC1 mouse embryonic stem cells (mESCs) were adapted to gelatin cultures and fed with KO-DMEM (Gibco) supplemented with 15% stem cell-qualified fetal bovine serum (FBS, Gemini), 2 mM L-glutamine (Gibco), 20 mM HEPES (Gibco), 1 mM sodium pyruvate (Gibco), 0.1 mM of each non-essential amino acids (Gibco), 0.1 mM 2-mercaptoethanol (Sigma), […] mLIF (Gemini).
Cells were treated with compounds as indicated and incubated for 24 hours, or as indicated. Samples were run on 4-20%, AnyKD or 10% (in-vitro ubiqutination assay) SDS-PAGE Gels (Bio-rad), and transferred to PVDF membranes using the iBlot 2.0 dry blotting system (Thermo Fisher Scientific). Membranes were blocked with LiCor blocking solution (LiCor), and incubated with primary antibodies overnight, followed by three washes in LiCor blocking solution and incubation with secondary antibodies for one hour in the dark. […]

[3] = target: SALL4 ZnF domains and DDB1ΔB-CRBN (Homo sapiens, UniProt Q96SW2+Q9UJQ4); experiment: TR-FRET in vitro CRBN binding assay; details: SALL4ZnF2; in accordance with cellular potency in degradation of SALL4
Protocol: Before TR-FRET measurements were conducted, the reactions were incubated for 15 minutes at RT. […] The TR-FRET signal of each data point was extracted by calculating the 520/490 nm ratios.

Flag-hsSALL4 = experiment: Western blot of transiently transfected Flag-hsSALL4 (WT or mutant) in Kelly cells; assay type: cell-based, human; details: 24 hours
Protocol: as §1, with “Cells were treated with compounds as indicated and incubated for 24 hours, or as indicated. Samples” for “Samples”
(§2) hsCRBN, hsSALL4, mmSALL4 and drSALL4 were PCR amplified and cloned into a pNTM-Flag based vector. Mutagenesis was performed using the Q5 site-directed mutagenesis kit (NEB, USA) with primers designed using the BaseChanger web server (http://nebasechanger.neb.com/).
For transient transfection, 0.2 million cells were seeded per well in a 12 well plate on day one. On day two, cells were transfected with 200-300 ng of plasmid (pNTM-Flag containing gene of interest) using 2 μL of lipofectamine 2000 transfection reagent (Invitrogen). On day three, desired concentration of IMiD was added to each well and cells were harvested after 24 hours for western blot analysis using the protocol described above.

Flag-mmSALL4 = Flag-mmSALL4 (UniProt Q8BX22+Q96SW2); experiment: Western blot of transiently transfected Flag-mmSALL4 in Kelly cells; assay type: cell-based, mouse; details: Y415F, P418S, I419V, L430F, Q435H
Protocol: as §1, with “Cells were treated with compounds as indicated and incubated for 24 hours, or as indicated. Samples” for “Samples”
as §2
For transient transfection, 0.2 million cells were seeded per well in a 12 well plate on day one. On day two, cells were transfected with 200-300 ng of plasmid (pNTM-Flag containing gene of interest) using 2 μL of lipofectamine 2000 transfection reagent (Invitrogen). […]

SALL4 mRNA = experiment: Quantitative RT-PCR of total SALL4 mRNA in H9 hES cells; assay type: cell-based, human; details: 10 μM thalidomide, 24 hours, normalized to GAPDH
Protocol: RNA was isolated using the RNeasy Plus mini kit (Qiagen) and cDNA created by reverse transcription using ProtoScript II reverse transcriptase (NEB) following the manufacturer's instructions. The following primer sets from IDT were used with SYBR Green Master Mix (Applied Biosystems) to probe both GAPDH and total SALL4 levels:
Analysis was performed on a CFX Connect Real-Time PCR System (Bio-Rad) in a white 96-well PCR plate. Relative expression levels were calculated using the […] method.

[4] = Kelly, SK-N-DZ, HEK293T and H661 cells, increasing concentrations

T1 sequence (Q9UJQ4 whole entry): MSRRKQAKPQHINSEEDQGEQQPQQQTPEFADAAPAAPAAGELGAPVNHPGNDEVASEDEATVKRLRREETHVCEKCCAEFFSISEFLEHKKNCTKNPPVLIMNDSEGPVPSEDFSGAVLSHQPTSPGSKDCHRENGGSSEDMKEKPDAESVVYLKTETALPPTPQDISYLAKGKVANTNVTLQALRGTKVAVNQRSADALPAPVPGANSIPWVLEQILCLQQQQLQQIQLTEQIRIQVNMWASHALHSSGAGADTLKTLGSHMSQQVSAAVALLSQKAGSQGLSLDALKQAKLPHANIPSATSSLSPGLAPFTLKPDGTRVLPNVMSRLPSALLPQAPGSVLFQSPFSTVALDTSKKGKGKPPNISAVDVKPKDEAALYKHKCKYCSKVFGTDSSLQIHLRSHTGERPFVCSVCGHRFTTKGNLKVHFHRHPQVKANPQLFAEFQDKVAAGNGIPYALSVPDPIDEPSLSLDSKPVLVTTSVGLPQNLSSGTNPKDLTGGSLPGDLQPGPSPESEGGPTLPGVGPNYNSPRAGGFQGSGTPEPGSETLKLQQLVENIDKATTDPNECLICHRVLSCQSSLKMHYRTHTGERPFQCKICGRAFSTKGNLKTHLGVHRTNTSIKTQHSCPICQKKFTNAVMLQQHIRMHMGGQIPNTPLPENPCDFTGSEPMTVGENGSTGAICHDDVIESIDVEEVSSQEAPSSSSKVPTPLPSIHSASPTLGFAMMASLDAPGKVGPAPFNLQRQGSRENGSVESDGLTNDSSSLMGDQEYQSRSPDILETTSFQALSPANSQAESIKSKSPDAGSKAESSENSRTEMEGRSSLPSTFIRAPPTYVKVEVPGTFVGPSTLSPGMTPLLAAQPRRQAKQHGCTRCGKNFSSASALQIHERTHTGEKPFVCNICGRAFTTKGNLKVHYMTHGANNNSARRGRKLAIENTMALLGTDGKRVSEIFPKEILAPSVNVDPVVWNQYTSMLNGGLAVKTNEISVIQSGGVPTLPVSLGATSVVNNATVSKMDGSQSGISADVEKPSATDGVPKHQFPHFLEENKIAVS
T1 sequence (Q96SW2 whole entry): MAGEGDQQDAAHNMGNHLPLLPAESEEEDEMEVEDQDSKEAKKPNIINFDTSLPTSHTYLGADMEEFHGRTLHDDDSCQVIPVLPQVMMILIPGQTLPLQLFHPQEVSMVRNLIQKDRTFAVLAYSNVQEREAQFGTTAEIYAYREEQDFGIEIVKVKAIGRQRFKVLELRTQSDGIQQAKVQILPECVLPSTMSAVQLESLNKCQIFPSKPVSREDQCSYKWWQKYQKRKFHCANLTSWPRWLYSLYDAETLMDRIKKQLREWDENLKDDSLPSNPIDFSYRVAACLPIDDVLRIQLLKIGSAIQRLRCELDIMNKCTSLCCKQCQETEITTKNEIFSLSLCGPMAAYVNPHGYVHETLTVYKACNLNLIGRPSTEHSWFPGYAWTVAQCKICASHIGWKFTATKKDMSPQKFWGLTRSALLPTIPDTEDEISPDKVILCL
T1 sequence (Q16531 2-1140 partner limits assumed): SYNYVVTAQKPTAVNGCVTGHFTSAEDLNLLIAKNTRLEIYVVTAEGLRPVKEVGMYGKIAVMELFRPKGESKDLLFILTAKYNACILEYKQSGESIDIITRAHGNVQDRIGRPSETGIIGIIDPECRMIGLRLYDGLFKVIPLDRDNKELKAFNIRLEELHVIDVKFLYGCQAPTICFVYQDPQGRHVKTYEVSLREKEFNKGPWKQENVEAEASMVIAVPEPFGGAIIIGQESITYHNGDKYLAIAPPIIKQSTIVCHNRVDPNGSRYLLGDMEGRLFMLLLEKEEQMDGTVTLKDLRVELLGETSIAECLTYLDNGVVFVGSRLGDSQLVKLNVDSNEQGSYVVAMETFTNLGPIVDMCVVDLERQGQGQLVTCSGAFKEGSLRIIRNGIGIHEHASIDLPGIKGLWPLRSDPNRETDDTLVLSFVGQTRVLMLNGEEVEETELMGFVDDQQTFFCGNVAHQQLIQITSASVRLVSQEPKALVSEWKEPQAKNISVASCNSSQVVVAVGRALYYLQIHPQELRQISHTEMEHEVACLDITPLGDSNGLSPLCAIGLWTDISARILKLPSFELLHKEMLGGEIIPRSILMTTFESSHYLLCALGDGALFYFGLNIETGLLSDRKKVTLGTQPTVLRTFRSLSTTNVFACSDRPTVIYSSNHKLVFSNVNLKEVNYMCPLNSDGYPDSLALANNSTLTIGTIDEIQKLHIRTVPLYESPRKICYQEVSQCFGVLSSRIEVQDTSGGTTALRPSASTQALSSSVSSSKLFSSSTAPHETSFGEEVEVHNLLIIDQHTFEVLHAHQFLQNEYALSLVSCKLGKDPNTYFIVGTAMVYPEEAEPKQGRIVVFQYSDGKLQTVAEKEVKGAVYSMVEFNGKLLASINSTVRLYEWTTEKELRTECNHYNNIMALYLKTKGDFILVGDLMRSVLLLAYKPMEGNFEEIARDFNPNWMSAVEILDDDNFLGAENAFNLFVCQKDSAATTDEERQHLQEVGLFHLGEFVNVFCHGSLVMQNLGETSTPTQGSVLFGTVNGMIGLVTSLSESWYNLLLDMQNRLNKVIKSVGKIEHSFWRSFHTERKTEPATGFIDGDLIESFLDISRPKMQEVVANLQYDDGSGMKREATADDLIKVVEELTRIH
SALL4 ZnF domains and DDB1ΔB-CRBN, sequence (Q96SW2 whole entry, stated change not applied, the tested form may be a part): as the sequence (Q96SW2 whole entry) above
SALL4 ZnF domains and DDB1ΔB-CRBN, sequence (Q9UJQ4 402-436, stated change not applied): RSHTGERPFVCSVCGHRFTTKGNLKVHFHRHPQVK
Flag-mmSALL4, sequence (Q8BX22 whole entry): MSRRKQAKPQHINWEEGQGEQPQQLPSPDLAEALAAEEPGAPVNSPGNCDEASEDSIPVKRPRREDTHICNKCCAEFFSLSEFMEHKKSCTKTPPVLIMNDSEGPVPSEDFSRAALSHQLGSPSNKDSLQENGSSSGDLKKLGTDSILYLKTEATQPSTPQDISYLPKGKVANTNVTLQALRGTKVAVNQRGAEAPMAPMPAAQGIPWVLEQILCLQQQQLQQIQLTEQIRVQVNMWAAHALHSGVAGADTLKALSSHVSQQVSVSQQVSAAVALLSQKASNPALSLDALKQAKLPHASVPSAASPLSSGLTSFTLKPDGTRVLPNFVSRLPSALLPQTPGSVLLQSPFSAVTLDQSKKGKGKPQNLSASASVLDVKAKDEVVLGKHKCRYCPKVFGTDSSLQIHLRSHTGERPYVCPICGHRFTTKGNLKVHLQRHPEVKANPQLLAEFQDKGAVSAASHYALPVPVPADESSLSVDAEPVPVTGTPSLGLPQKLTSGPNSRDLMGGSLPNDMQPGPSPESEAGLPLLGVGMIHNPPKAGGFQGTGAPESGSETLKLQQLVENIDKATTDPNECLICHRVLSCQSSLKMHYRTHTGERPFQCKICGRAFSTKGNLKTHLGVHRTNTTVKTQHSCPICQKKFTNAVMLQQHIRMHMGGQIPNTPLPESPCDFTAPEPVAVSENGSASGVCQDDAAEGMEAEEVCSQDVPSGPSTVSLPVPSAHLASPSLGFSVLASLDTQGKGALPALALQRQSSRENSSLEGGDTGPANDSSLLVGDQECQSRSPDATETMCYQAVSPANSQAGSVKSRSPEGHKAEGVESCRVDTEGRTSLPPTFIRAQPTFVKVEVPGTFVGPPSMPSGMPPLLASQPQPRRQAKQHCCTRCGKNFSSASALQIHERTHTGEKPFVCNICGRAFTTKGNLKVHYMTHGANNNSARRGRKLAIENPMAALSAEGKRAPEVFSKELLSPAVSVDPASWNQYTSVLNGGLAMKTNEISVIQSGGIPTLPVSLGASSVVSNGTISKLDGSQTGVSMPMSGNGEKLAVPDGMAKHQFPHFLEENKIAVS
Flag-mmSALL4, sequence (Q96SW2 whole entry): as the sequence (Q96SW2 whole entry) above
Flag-mmSALL4, sequence (Q16531 2-1140 partner limits assumed): as the sequence (Q16531 2-1140 partner limits assumed) above

effect of co-treatment on IMiD-induced SALL4 degradation (SALL4; Kelly): abrogated
SMILES: NS(=O)(=O)OC[C@@H]1C[C@@H](n2ccc3c(N[C@H]4CCc5ccccc54)ncnc32)C[C@@H]1O [MLN4924]
effect of co-treatment on IMiD-induced degradation of targets (rescue proteomics) ([2]; SK-N-DZ cells, 1 μM pomalidomide + 5 μM MLN4924, 5 hours): fully abrogated IMiD-induced degradation of targets

effect of co-treatment on IMiD-induced SALL4 degradation (SALL4; Kelly): abrogated
SMILES: NS(=O)(=O)OC[C@H]1C[C@@H](Nc2ccnc3cc(-c4cccc(SC(F)(F)F)c4)nn23)[C@H](O)[C@@H]1O [MLN7243]

Further lines, the compound ahead of its results:

SMILES: Nc1cccc2c1CN(C1CCC(=O)NC1=O)C2=O (stereo not shown) [lenalidomide]
plasma half-life (t1/2) [1]: ~3 h

SMILES: Nc1cccc2c1C(=O)N(C1CCC(=O)NC1=O)C2=O (stereo not shown) [pomalidomide]
degradation of mmSALL4 (mmSALL4): does not promote degradation of mmSALL4
further proteins degraded in proteomics ([2]; H9 hESC, 5 hours, 5 μM lenalidomide, 1 μM pomalidomide): degradation of additional targets including the previously characterized zinc finger protein ZFP91 (An et al., 2017), and the largely uncharacterized proteins ZBTB39, FAM83F, WIZ, RAB28, and DTWD1
substrate specificity: proteins degraded across cell lines [2]: robust degradation of ZBTB39, ZFP91, DTWD1, and ZNF653
number of substrates identified (rank order) [2]: Thal <Len<<Pom
plasma half-life (t1/2) [1]: ~9 h
Cmax [1]: 0.05 µM
SALL4 degradation in CRBN−/− cells (SALL4; increasing concentrations): no degradation of SALL4 was observed
SALL4 protein levels by western blot (SALL4; H9 hESC, increasing doses): dose dependent decrease in protein levels
earliest time of SALL4 degradation post-treatment (SALL4; Kelly cells, 1 or 5 μM pomalidomide): 4 h
SALL4 protein levels by western blot (SALL4; [4]): dose-dependent decrease
rank order in binding observed with ZnF2 [3]: Pom >Thal>>Len

SMILES: O=C1CC[C@H](N2Cc3c(OCc4ccc(CN5CCOCC5)cc4)cccc3C2=O)C(=O)N1 [CC-220]
degradation of ZnF targets including SALL4 (proteomics) ([2]; SK-N-DZ cells, 0.1 μM CC-220, 1 μM dBET57, 5 hours (FIG. 6C)): effective inducers of ZnF targets including SALL4 degradation

SMILES: O=C1CCC(N2C(=O)c3ccccc3C2=O)C(=O)N1 (stereo not shown) [thalidomide, 2-(2,6-dioxopiperidin-3-yl)-1H-isoindole-1,3(2H)-dione]
degradation of wild type Flag-hsSALL4 (Flag-hsSALL4): readily degraded
degradation of Flag-SALL4 with G416A or G416N mutations in ZnF2 (Flag-hsSALL4; thalidomide): rendered SALL4 stable
degradation of Flag-SALL4 with G600A or G600N mutations in ZnF4 (Flag-hsSALL4; thalidomide): readily degraded
degradation of mmSALL4 (mmSALL4): does not promote degradation of mmSALL4
degradation of mmSALL4 with humanized ZnF2 domain (Flag-mmSALL4): degradation was induced
substrate specificity: proteins degraded across cell lines [2]: robust degradation of the zinc finger transcription factors ZNF692, SALL4, and the ubiquitin ligase RNF166
number of substrates identified (rank order) [2]: Thal <Len<<Pom
plasma concentration in humans ([1]; human, in vivo): ≤ 10 µM
plasma half-life (t1/2) [1]: 6 to 8 h
Cmax [1]: 5 to 10 µM
SALL4 degradation at plasma-relevant concentration (SALL4; 10 μM): effective degradation of SALL4
SALL4 degradation in CRBN−/− cells (SALL4; increasing concentrations): no degradation of SALL4 was observed
SALL4 protein levels by western blot (SALL4; H9 hESC, increasing doses): dose dependent decrease in protein levels
SALL4 protein levels by western blot (SALL4; [4]): dose-dependent decrease
SALL4 mRNA level (SALL4 mRNA): does not reduce the level of SALL4 mRNA, but rather upregulates SALL4 mRNA
SALL4 mRNA level (SALL4 mRNA; listed as Thalidomide): did not influence the expression of SALL4 mRNA
rank order in binding observed with ZnF2 [3]: Pom >Thal>>Len

SMILES: CC(C)C[C@H](NC(=O)[C@H](Cc1ccccc1)NC(=O)c1cnccn1)B(O)O [bortezomib]
effect of co-treatment on IMiD-induced SALL4 degradation (SALL4; Kelly): abrogated
